What was measured:
chymotrypsin-like sites = conditions: patients treated with carfilzomib; cited from earlier work
[1] = system: chymotrypsin-like sites (β5) of proteasome in MM cells; test: PROTEASOMEGLO assay of proteasome inhibition in MM cells; type: cell-based; conditions: washout
Experimental: (§1) Proteasome inhibition in MM cells was measured with luminogenic substrates using PROTEASOMEGLO assay (Promega). […] An aliquot of culture was pelleted and medium was removed and replaced with PBS. The resulting cell suspension was mixed with luminogenic substrates in the manufacturer-provided lysis/assay buffer. After 3 minutes mixing on an orbital shaker, the plate was incubated in the dark for additional 17 minutes, followed by the measurements of the luminescence, performed in triplicate for each substrate/data point. Data were analyzed as for purified proteasomes. […] Cells (1×10^6 per well of a 6-well plate) were incubated with the inhibitors for 4 hours at 37° C. and this was followed by a 2 hour incubation with 5 μM BODIPY-TMR-epoxomicin. Subsequently, the medium was removed and the cells were washed with PBS and harvested. […] The supernatant was collected and the protein concentration was determined by the Bradford assay, and used to normalize gel loading. The samples were analysed by SDS-PAGE and fluorescent densitometry as described for competition experiment in cell lysates. IC50 values were calculated from three independent experiments using […] PRISM software.

[2] = system: T1, chymotrypsin-like sites (β5) of proteasome in MM cells; test: as above; type: cell-based; conditions: for Inhibition of chymotrypsin-like sites, 6 h −NC-022: washout
T1 construct: other: NCI-H929; bortezomib 100 nM 1 h; bortezomib 11 nM 1 h; bortezomib 3.7 nM 1 h; bortezomib 33 nM 1 h; other: NCI-H9
Experimental: as §1

[3] = target: T2, trypsin-like sites (β2) of proteasome in MM cells (Homo sapiens, UniProt Q99436); test: as above; type: cell-based; conditions: for Inhibition of trypsin-like sites, 6 h +NC-022 / Inhibition of trypsin-like sites, 6 h −NC-022: washout
T2 construct: endogenous in cells; host or cells: NCI-H929, RPMI-8226 and other MM cell lines
T2 sequence (Q99436 44-277): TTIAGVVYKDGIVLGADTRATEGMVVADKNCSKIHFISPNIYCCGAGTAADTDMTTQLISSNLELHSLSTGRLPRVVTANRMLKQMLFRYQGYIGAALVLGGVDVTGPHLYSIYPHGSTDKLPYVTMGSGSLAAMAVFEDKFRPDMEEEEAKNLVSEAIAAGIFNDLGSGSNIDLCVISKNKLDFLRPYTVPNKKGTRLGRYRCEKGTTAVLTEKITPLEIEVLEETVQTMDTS
Experimental: as §1

NCI-H929 cells = test: ALAMAR BLUE cell viability assay; type: cell-based; conditions: NCI-H929, viability at 48 h
Experimental: (§2) RPMI-8226 and NCI-H929 cells were cultured in RPMI-1640 supplemented with 10% fetal bovine serum, penicillin, streptomycin, and plasmocin in 5% CO2 humidified incubator. HEK-293T cells were cultured in DMEM containing 10% fetal calf serum, 10 units/mL penicillin, and 10 μg/mL streptomycin in a 7% CO2 humidified incubator. Viability of multiple myeloma cells was measured with ALAMAR BLUE mitochondrial dye conversion assay. Viability of peripheral blood mononuclear cells (PBMNCs) was measured using CELL TITER-GLO luminescent cell viability assay (Promega), which is based on quantification of ATP present in the cells. Caspase-3/7 activity was measured using APO-ONE 3/7 homogeneous assay (Promega).

KMS-12-BM cells = test: ALAMAR BLUE cell viability assay; type: cell-based; conditions: viability at 48 h
Experimental: as §2

[4] = KMS-12-BM, carfilzomib 11 nM 1 h
[5] = KMS-12-BM, carfilzomib 33 nM 1 h
[6] = KMS-12-BM, carfilzomib 100 nM 1 h
[7] = KMS-12-BM, carfilzomib 300 nM 1 h
[8] = KMS-12-BM, carfilzomib 900 nM 1 h
[9] = NCI-H929, carfilzomib 3.7 nM 1 h
[10] = NCI-H929, carfilzomib 11 nM 1 h
[11] = NCI-H929, carfilzomib 33 nM 1 h

SMILES: CC(C)C[C@H](NC(=O)[C@H](CCc1ccccc1)NC(=O)CN1CCOCC1)C(=O)N[C@@H](Cc1ccccc1)C(=O)N[C@@H](CC(C)C)C(=O)[C@@]1(C)CO1 [Carfilzomib]
- inhibition of the chymotrypsin-like sites in patients (chymotrypsin-like sites): ~90%
- Inhibition of chymotrypsin-like sites, 6 h +NC-022 [1, 4]: 63 ± 13 % control
- Inhibition of chymotrypsin-like sites, 6 h +NC-022 [1, 5]: 84 ± 6 % control
- Inhibition of chymotrypsin-like sites, 6 h +NC-022 [1, 6]: 90 ± 3 % control
- Inhibition of chymotrypsin-like sites, 6 h +NC-022 [1, 7]: 95 ± 4 % control
- Inhibition of chymotrypsin-like sites, 6 h +NC-022 [1, 8]: 99 ± 4 % control
- Inhibition of chymotrypsin-like sites, 6 h +NC-022 [1, 9]: 41 ± 29 % control
- Inhibition of chymotrypsin-like sites, 6 h +NC-022 [1, 10]: 52 ± 32 % control
- Inhibition of chymotrypsin-like sites, 6 h +NC-022 [1, 11]: 71 ± 23 % control
- Inhibition of chymotrypsin-like sites, 1 h [2, 4]: 75 ± 6 % control
- Inhibition of chymotrypsin-like sites, 6 h −NC-022 [2, 4]: 67 ± 17 % control
- Inhibition of chymotrypsin-like sites, 1 h [2, 5]: 90 ± 3 % control
- Inhibition of chymotrypsin-like sites, 6 h −NC-022 [2, 5]: 97 ± 1 % control
- Inhibition of chymotrypsin-like sites, 1 h [2, 6]: 95 ± 3 % control
- Inhibition of chymotrypsin-like sites, 6 h −NC-022 [2, 6]: 97 ± 1 % control
- Inhibition of chymotrypsin-like sites, 1 h [2, 7]: 97 ± 3 % control
- Inhibition of chymotrypsin-like sites, 6 h −NC-022 [2, 7]: 97 ± 1 % control
- Inhibition of chymotrypsin-like sites, 1 h [2, 8]: 98 ± 3 % control
- Inhibition of chymotrypsin-like sites, 6 h −NC-022 [2, 8]: 97 ± 0 % control
- Inhibition of chymotrypsin-like sites, 1 h [2, 9]: 14 ± 43 % control
- Inhibition of chymotrypsin-like sites, 6 h −NC-022 [2, 9]: 65.5 % control
- Inhibition of chymotrypsin-like sites, 1 h [2, 10]: 39 ± 35 % control
- Inhibition of chymotrypsin-like sites, 6 h −NC-022 [2, 10]: 89 ± 11 % control
- Inhibition of chymotrypsin-like sites, 1 h [2, 11]: 75 ± 17 % control
- Inhibition of chymotrypsin-like sites, 6 h −NC-022 [2, 11]: 95 ± 7 % control
- Inhibition of trypsin-like sites, 1 h [3, 4]: −3 ± 10 % control
- Inhibition of trypsin-like sites, 6 h +NC-022 [3, 4]: 91 ± 2 % control
- Inhibition of trypsin-like sites, 6 h −NC-022 [3, 4]: 5 ± 25 % control
- Inhibition of trypsin-like sites, 1 h [3, 5]: 0 ± 11 % control
- Inhibition of trypsin-like sites, 6 h +NC-022 [3, 5]: 91 ± 2 % control
- Inhibition of trypsin-like sites, 6 h −NC-022 [3, 5]: 45 ± 4 % control
- Inhibition of trypsin-like sites, 1 h [3, 6]: 18 ± 8 % control
- Inhibition of trypsin-like sites, 6 h +NC-022 [3, 6]: 94 ± 2 % control
- Inhibition of trypsin-like sites, 6 h −NC-022 [3, 6]: 62 ± 2 % control
- Inhibition of trypsin-like sites, 1 h [3, 7]: 49 ± 18 % control
- Inhibition of trypsin-like sites, 6 h +NC-022 [3, 7]: 93 ± 2 % control
- Inhibition of trypsin-like sites, 6 h −NC-022 [3, 7]: 69 ± 2 % control
- Inhibition of trypsin-like sites, 1 h [3, 8]: 75 ± 14 % control
- Inhibition of trypsin-like sites, 6 h +NC-022 [3, 8]: 94 ± 3 % control
- Inhibition of trypsin-like sites, 6 h −NC-022 [3, 8]: 72 ± 2 % control
- Inhibition of trypsin-like sites, 1 h [3, 9]: −7 ± 18 % control
- Inhibition of trypsin-like sites, 6 h +NC-022 [3, 9]: 93 ± 3 % control
- Inhibition of trypsin-like sites, 6 h −NC-022 [3, 9]: 3 % control
- Inhibition of trypsin-like sites, 1 h [3, 10]: 0 ± 14 % control
- Inhibition of trypsin-like sites, 6 h +NC-022 [3, 10]: 93 ± 2 % control
- Inhibition of trypsin-like sites, 6 h −NC-022 [3, 10]: 39 ± 36 % control
- Inhibition of trypsin-like sites, 1 h [3, 11]: 17 ± 8 % control
- Inhibition of trypsin-like sites, 6 h +NC-022 [3, 11]: 94 ± 3 % control
- Inhibition of trypsin-like sites, 6 h −NC-022 [3, 11]: 46 ± 24 % control
- Viability +NC-022 (NCI-H929 cells; carfilzomib 3.7 nM 1 h): 36 ± 15 % control
- Viability −NC-022 (NCI-H929 cells; carfilzomib 3.7 nM 1 h): 99 ± 9 % control
- Viability +NC-022 (NCI-H929 cells; carfilzomib 11 nM 1 h): 14 ± 8 % control
- Viability −NC-022 (NCI-H929 cells; carfilzomib 11 nM 1 h): 78 ± 15 % control
- Viability +NC-022 (NCI-H929 cells; carfilzomib 33 nM 1 h): 4 ± 2 % control
- Viability −NC-022 (NCI-H929 cells; carfilzomib 33 nM 1 h): 30 ± 11 % control
- Viability +NC-022 (KMS-12-BM cells; carfilzomib 11 nM 1 h): 69 ± 2 % control
- Viability −NC-022 (KMS-12-BM cells; carfilzomib 11 nM 1 h): 95 ± 3 % control
- Viability +NC-022 (KMS-12-BM cells; carfilzomib 33 nM 1 h): 40 ± 3 % control
- Viability −NC-022 (KMS-12-BM cells; carfilzomib 33 nM 1 h): 91 ± 3 % control
- Viability +NC-022 (KMS-12-BM cells; carfilzomib 100 nM 1 h): 27 ± 5 % control
- Viability −NC-022 (KMS-12-BM cells; carfilzomib 100 nM 1 h): 83.5 ± 3 % control
- Viability +NC-022 (KMS-12-BM cells; carfilzomib 300 nM 1 h): 15 ± 1 % control
- Viability −NC-022 (KMS-12-BM cells; carfilzomib 300 nM 1 h): 71 ± 2 % control
- Viability +NC-022 (KMS-12-BM cells; carfilzomib 900 nM 1 h): 9 ± 1 % control
- Viability −NC-022 (KMS-12-BM cells; carfilzomib 900 nM 1 h): 41 ± 7 % control

Source: patent US8609610B2, “Inhibitors of the trypsin-like site of the proteasome and methods of use thereof” (Trustees of Dartmouth College, priority 2011, dated 2013)
